{"source": "patent EP3735959A1", "about": "“COMPOSITIONS TO REDUCE HYPERPIGMENTATION” (InnovativeHealth Group SL, priority 2019, dated 2020)", "origin": "cited, not measured here", "test_system": "human epidermal melanocytes"}
{"smiles": "C=C(C)[C@@H]1CCC(C)=C[C@H]1c1c(O)cc(CCCCC)cc1O", "note": "[CBD, Cannabidiol]", "values": [{"measurement": "melanogenesis", "setting": "6 µM, by increasing the expression of MITF (reference 6)", "result": "induced melanogenesis"}, {"measurement": "cellular tyrosinase activity", "setting": "human epidermal melanocytes, concentration dependent (reference 6)", "result": "significantly increased"}]}
